Laboratory results reported in patent US20110144077A1, “TREATMENT OF RETINAL DEGENERATION” (priority 2008, published 2011).
Entries after “also recorded” stand apart in the source; their conditions may differ.

Legend:
[1] = tested on: photoreceptor cells in the outer nuclear layer (ONL); assay: Retinal explant culture, SNP induced apoptosis detected by TUNEL; format: cell-based, C57BL/6 mice
Experimental: Retinal explant culture: Eyes from postnatal day 10, C57BL/6 mice were removed and cleaned with 70% ethanol. The anterior segment, vitreous body, and sclera were removed and the retina mounted on Millicell nitrocellulose inserts (Millipore, Billerica, Mass.) photoreceptor-side down. Explants were cultured without retinal pigment epithelium (RPE) in 1.2 ml of R16 specialised media (from Dr. P. A. Ekstrom, Wallenberg Retina Centre, Lund University, Lund, Sweden) without additional serum. Treated explants were cultured in medium containing 300 μM of the nitric oxide donor SNP (sodium nitroprusside) for 24 h. Pre-treatment with norgestrel was for 1 hour.
(§1) Apoptosis detection by Terminal deoxynucleotidyl transferase-mediated biotinylated UTP nick end labeling (TUNEL): Retinal explants were fixed in 10% neutral buffered formalin overnight at 4° C., followed by cryoprotection in 25% sucrose overnight at 4° C. Frozen sections (7 μm) were incubated with terminal deoxynucleotidyl transferase (MSC, Dublin, Republic of Ireland) and fluorescein-12-dUTP (Roche, Lewes, UK) according to manufacturers' instructions at 37° C. for 1 h. Sections were mounted and viewed under a fluorescence microscope (Leica DM LB2; Leica, Nussloch, Germany) using an FITC filter.

photoreceptor cells = assay: Light damage model in vivo, TUNEL staining of ONL; set-up: species or system albino balb/c mice
Experimental: as §1
Light damage model: Balb/c mice were dark adapted for 18 h prior to exposure to constant light. Mice were injected intraperitoneally with 100 mg/kg of norgestrel 1 hour prior to light damage. Immediately prior to light exposure their pupils were dilated with 0.5% cyclopentolate under red light. Retinal light damage was induced by exposure to 2 h of cool white fluorescent light at an illumination of 5000 lux. Following exposure to constant light, animals were placed in the dark for 24 h then killed immediately by cervical dislocation.
TUNEL staining was performed as described above.

[2] = tested on: photoreceptor cells in the outer nuclear layer (ONL); assay: rd10 model of chronic retinal degeneration; format: in vivo, rd10 mouse
Experimental: Peanut agglutinin (PNA) staining: Eyes were fixed in 10% neutral buffered formalin overnight at 4° C., followed by cryoprotection in 25% sucrose overnight at 4° C. Frozen sections (7 μm) were blocked with 0.1% bovine serum albumin (BSA) in 0.1% tween/PBS for 30 minutes at room temperature. Sections were incubated with rhodamine conjugated PNA (Invitrogen, Dun Laoghaire, Ireland) for 20 minutes at room temperature as per manufacturers' instructions. Sections were mounted and viewed under a fluorescence microscope (Leica DM LB2; Leica, Nussloch, Germany) using a TRITC filter. Immunofluorescence: Eyes were fixed in 10% neutral buffered formalin overnight at 4° C., followed by cryoprotection in 25% sucrose overnight at 4° C. Frozen sections (7 μm) were blocked with 0.1% bovine serum albumin (BSA) in 0.1% tween/PBS for 1 hour at room temperature. Sections were incubated with anti-rhodopsin antibody (LAB VISION Corporation, Fremont, Calif., USA) overnight at 4° C. Sections were washed and incubated with FITC conjugated secondary mouse antibody (Dako, Glostrup, Denmark) for 1 hour at room temperature. Following further washes, sections were mounted and viewed under a fluorescence microscope (Leica DM LB2; Leica, Nussloch, Germany) using a FITC filter. […] It is a better model of the slow progression of typical human autosomal recessive RP than the acute light model as photoreceptor cells are lost over a period of weeks rather than days. Loss of photoreceptors in the rd10 mouse begins at approximately 2 weeks of age, with the peak of photoreceptor death occurring at postnatal day (P) 25.

[3] = compared to uninjected or vehicle injected controls

SMILES: C#CC1(O)CC[C@H]2[C@@H]3CCC4=CC(=O)CC[C@@H]4[C@H]3CC[C@@]21CC (mixture of isomers) [norgestrel]
- protection of photoreceptors from SNP induced apoptosis (TUNEL) ([1]; ex vivo retinal explants, 300 μM SNP for 24 h, 1 hour norgestrel pre-treatment, increasing concentrations): protected from SNP induced apoptosis; also recorded: protects photoreceptive cells from SNP induced cell death
- toxicity to retinal cells ([1]; retinal explants, norgestrel alone at the highest concentration used): not toxic to retinal cells
- protection of photoreceptors from light induced retinal damage / apoptosis (photoreceptor cells; 100 mg/kg IP, 1 hour before 2 h light damage): protects from the retinal damage observed; also recorded: Photoreceptors are protected
- duration of protection after a single injection (photoreceptor cells; 100 mg/kg, single injection, post light damage): 72 h
- protection from light induced cell death (TUNEL positive cells) (photoreceptor cells; central retina, 24 hours, 100 mg/kg): approx 70%
- protection of layers of photoreceptor nuclei, central retina ([2]; 100 mg/kg IP every second day P18-P30, central retina): 1-2 layers
- protection of layers of photoreceptor nuclei, peripheral retina ([2]; 100 mg/kg IP every second day P18-P30, peripheral retina): 4-5 layers
- protection of layers of photoreceptor nuclei in the ONL, central retina ([2]; 100 mg/kg injected daily, P25, central retina): 3-4 layers
- protection of layers in the ONL, peripheral retina ([2]; 100 mg/kg injected daily, P25, peripheral retina): 3-4 layers
- degeneration of central retina, photoreceptor nuclei remaining at P25 and P30 versus vehicle ([2]; central retina, P25 and P30): degenerates more slowly
- PNA staining (cone photoreceptors) in the ONL [2, 3]: more cone cells are found
- rhodopsin immunofluorescent staining (rod photoreceptors) in the ONL [2, 3]: more rhodopsin positive cells remain
- degeneration of peripheral retina between P25 and P30 versus vehicle ([2]; peripheral retina, P25 to P30): degeneration of the peripheral retina virtually ceases
- protection with injection every second day versus daily ([2]; rd10, P25, every second day compared with daily): equally as protected
